From patent US12559454B2, “Benzenesulfonamide derivatives and uses thereof” (2692372 Ontario, Inc., priority 2019, dated 2026) come the findings set out here.

For series [1], the target named is T1, BTK (Homo sapiens, UniProt Q06187). Briefly: BTK washout experiment. Format: biochemical. The note with it: 6-h incubation, 50 nM BTK, 177 nM compound, 400-fold dilution; relative to DMSO. As to the method:
After a 3-h incubation of 40 nM BTK in the presence of 296 nM of compound I-A1, a 400-fold dilution was performed to remove excess inhibitor.
After a 6-h incubation of 50 nM BTK in the presence of 280 nM of compound 3A-6, a 400-fold dilution was performed to remove excess inhibitor.
By way of contrast, a “washout” experiment performed with ARQ-531 gives a very different result, because this compound lacks a warhead and is known to inhibit BTK reversibly. After a 6-h incubation of 50 nM BTK in the presence of 177 nM of ARQ-531, a 400-fold dilution was performed to remove excess inhibitor. […] This indicates to one of ordinary skill in the art that the enzyme was not inhibited irreversibly during the incubation with ARQ-531.

In series [2] the target is T1, BTK. Kind of series: In vitro BTK inhibition (no preincubation). It counts as biochemical.
Series [3] concerns the target T1, BTK. Briefly: BTK irreversible inhibition, enzyme kinetic analysis. Format: biochemical. The settings on record: 0.1 nM BTK, 500 μM ATP. As to the method:
One of ordinary skill in the art will recognize that this is consistent with the irreversible inhibition of BTK by compound I-A1.
One of ordinary skill in the art will recognize that this is consistent with the irreversible inhibition of BTK by compound I-A6.
One of ordinary skill in the art will recognize that this is consistent with the irreversible inhibition of BTK by compound 3A-2.
The shift of IC50 to a lower value after pre-incubation of the enzyme indicates to one of ordinary skill in the art that a significant portion of the enzyme was inhibited irreversibly during the incubation period.

Series [4] addresses T2, His-tagged BTK kinase domain (Homo sapiens, UniProt Q06187).
T2 construct: Intact His-tagged BTK kinase domain (SOURCE)(10 μM) was incubated
Briefly: Mass spectral analysis of tryptic digest of BTK kinase domain. Format: binding. The settings on record: 10 μM BTK KD, 10 μM compound, 45 min; for C481 covalent modification: tryptic peptide 467-487. The procedure:
A protein kinase that is inhibited by compound and/or pharmaceutically acceptable salt of the present disclosure may be subjected to mass spectral analysis to assess the formation of permanent, irreversible covalent adducts. […] Such methods identify permanent, irreversible covalent protein adducts by observing a mass peak that corresponds to the mass of a control sample plus the mass of an irreversible adduct.
After the incubation time, the reactions were quenched by acetone precipitation and the pellet was re-dissolved in 8 M Urea. […] The BTK protein band was then excised and subjected to an in-gel trypsin digest by reducing the protein (5 mM DTT), alkylating the thiols with iodoacetamide (15 mM), and then incubating the protein gel band with trypsin in a 37 C water bath (4 hours). The tryptic digestion was then quenched by the addition of trifluoroacetic acid, and peptides were removed from the gel band by sonicating with increasing amounts of acetonitrile (0%, 30%, & 60%). Peptides were then purified using C18 ziptips, spotted on the MALDI target plate with α-cyano-4-hydroxycinnamic acid as the desorption matrix (10 mg/mL in 0.10% TFA:Acetonitrile 50:50), and analyzed in reflectron mode.

Another series concerns the target T3, JAK3 (Homo sapiens, UniProt P52333).
T3 sequence (P52333 1-1124): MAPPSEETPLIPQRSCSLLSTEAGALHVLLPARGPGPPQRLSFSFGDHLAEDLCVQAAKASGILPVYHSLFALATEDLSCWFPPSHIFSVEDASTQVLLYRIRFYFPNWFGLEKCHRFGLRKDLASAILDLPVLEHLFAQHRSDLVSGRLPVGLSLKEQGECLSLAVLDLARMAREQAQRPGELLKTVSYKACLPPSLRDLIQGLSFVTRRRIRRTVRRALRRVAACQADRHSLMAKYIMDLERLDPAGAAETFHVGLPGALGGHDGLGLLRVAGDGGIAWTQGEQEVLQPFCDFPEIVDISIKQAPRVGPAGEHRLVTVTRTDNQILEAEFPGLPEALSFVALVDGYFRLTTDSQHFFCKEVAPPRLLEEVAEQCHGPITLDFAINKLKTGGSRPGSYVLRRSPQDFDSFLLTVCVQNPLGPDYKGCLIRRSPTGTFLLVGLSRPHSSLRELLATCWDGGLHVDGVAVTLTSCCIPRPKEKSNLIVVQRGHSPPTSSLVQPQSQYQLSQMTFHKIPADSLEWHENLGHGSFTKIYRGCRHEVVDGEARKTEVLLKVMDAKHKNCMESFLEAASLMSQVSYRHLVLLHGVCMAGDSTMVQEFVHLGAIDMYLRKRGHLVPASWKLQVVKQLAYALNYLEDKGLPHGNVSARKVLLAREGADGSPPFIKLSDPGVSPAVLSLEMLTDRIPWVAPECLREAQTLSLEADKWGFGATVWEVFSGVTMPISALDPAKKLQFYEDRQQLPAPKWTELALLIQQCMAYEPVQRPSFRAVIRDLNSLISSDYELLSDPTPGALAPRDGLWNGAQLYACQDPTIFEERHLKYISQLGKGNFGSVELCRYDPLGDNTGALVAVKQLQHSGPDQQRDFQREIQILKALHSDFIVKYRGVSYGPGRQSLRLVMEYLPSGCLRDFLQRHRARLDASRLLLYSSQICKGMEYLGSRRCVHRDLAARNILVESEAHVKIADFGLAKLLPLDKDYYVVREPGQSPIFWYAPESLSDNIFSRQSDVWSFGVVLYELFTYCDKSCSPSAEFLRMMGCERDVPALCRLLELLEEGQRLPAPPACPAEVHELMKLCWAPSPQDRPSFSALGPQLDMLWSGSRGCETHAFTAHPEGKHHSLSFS
Kind of series: In vitro JAK3 inhibition (no preincubation). Format: biochemical. The procedure:
In vitro BTK and JAK3 inhibition studies are shown in Table 17 and Table 18 (no preincubation).

Series [5] deals with T1, BTK. Briefly: Selected kinase inhibition, BTK (Table 6). It counts as biochemical.
Series [6] has as its system RL human non-Hodgkin's lymphoma B cell line. Briefly: Cell viability in RL cells (Table 6). Format: cell-based.
Series [7] concerns normal primary human fibroblast (NHF) cell lines. Kind of series: Toxicity study, CellTiter-Blue viability in normal primary human fibroblasts (NHF). Format: cell-based. The settings on record: NHF cells, 72 hrs exposure. The procedure: Anti-cancer efficacy of exemplary compounds of this application was assessed in vitro in different cancer cell lines. Cell viability was examined following treatment at various concentration of inhibitor (0.097656-50 μM) using a cell Titer-Blue cell viability assay. 1×10^4 cells (NHF cells)/well were plated in 96-well assay plates in culture medium. All cells were grown in DMEM, IMDM and RPMI-1640 supplemented with 10% FBS. After 24 hrs, test compounds and vehicle controls were added to appropriate wells so the final volume was 100p in each well. The cells were cultured for the desired test exposure period (72 hrs) at 37° C. and 5% CO2. The assay plates were removed from 37° C. incubator and 20 μl/well of CellTiter-Blue® Reagent was added. The plates were incubated using standard cell culture conditions for 1-4 hours and the plates were shaken for 10 seconds and record fluorescence at 560/590 nm.
Representative data for exemplary compounds against select normal primary human fibroblast (NHF) cell lines are presented in the following Table 7.
(In general: Resazurin is reduced to fluorescent resorufin, in cell work by metabolically active cells.)

A short description of series [8]: Parallel artificial membrane permeability assay (PAMPA), Example C4. Format: in vitro ADME. The settings on record: PBS pH 7.4, 10 μM, 16 hours. As to the method:
Assay Procedures. […] 7) Cover with plate lid. Vortex at 750 rpm for 100 seconds. […] Determine the compound concentrations by LC/MS/MS.

For orientation: IC50 means the point on the concentration scale where inhibition reaches its midpoint. Higher therefore signals lower potency. The term kinact denotes the rate constant of inactivation at saturating inhibitor.

T1 sequence (Q06187 whole entry, species assumed): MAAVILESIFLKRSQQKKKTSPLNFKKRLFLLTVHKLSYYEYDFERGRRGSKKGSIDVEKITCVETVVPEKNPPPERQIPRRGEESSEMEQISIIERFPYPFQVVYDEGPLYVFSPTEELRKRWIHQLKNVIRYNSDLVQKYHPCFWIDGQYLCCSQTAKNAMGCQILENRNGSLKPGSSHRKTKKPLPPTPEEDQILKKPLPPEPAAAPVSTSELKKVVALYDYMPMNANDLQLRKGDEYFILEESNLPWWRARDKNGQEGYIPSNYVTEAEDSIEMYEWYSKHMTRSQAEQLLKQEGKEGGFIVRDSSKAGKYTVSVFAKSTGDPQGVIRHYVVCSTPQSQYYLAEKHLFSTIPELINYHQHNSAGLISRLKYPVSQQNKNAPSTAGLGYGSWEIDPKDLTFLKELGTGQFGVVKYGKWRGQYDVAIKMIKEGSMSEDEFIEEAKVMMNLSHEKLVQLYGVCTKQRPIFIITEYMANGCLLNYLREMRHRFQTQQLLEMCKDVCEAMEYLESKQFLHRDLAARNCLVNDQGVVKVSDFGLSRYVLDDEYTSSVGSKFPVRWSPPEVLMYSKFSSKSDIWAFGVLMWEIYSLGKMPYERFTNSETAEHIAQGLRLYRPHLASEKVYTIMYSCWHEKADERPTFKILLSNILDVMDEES
T2 sequence (Q06187 402-655 limits assumed): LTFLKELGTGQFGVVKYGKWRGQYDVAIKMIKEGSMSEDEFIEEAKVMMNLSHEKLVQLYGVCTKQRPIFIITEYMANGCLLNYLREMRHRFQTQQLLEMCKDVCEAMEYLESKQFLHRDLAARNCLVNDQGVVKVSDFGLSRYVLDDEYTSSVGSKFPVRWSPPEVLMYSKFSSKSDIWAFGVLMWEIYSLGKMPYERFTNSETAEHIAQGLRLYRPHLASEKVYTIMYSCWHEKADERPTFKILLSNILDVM

As for `O=C(c1ccc(Oc2ccccc2)cc1Cl)c1c[nH]c2ncnc(N[C@@H]3CC[C@@H](CO)OC3)c12` [ARQ-531, reference compound], at BTK [1], the “residual activity of the enzyme” value was “recovered all of its activity”.
In turn, `Nc1ncnc2c1c(-c1ccc(Oc3ccccc3)cc1)nn2[C@@H]1CCCN(S(=O)(=O)c2c(F)c(F)c(F)c(F)c2OCC(F)(F)F)C1` [Compound 3A-2, (R)-3-(4-phenoxyphenyl)-1-(1-((2,3,4,5-tetrafluoro-6-(2,2,2 trifluoroethoxy)phenyl)sulfonyl)piperidin-3-yl)-1H-pyrazolo[3,4-d]pyrimidin-4-amine] returned an IC50 on BTK [2] (Table 17) of 100 to 1000 nM. For the same compound, the “inhibition profile by enzyme kinetic analysis” value at BTK [3] was “time-dependent inhibition”. For the same compound, on BTK [3] (saturation kinetics), the kinact was 0.00169 s⁻¹. At BTK [3] (saturation kinetics of irreversible inhibition), this compound registered a Ki of 120 nM.
With `Nc1ncnc2c1c(-c1ccc(Oc3ccccc3)cc1)nn2[C@@H]1CCN(S(=O)(=O)c2cc(F)c(F)c(F)c2F)C1` [Compound 3A-4, 3-(4-phenoxyphenyl)-1-[(3R)-1-(2,3,4,5-tetrafluorophenyl)sulfonylpyrrolidin-3-yl]pyrazolo[3,4-d]pyrimidin-4-amine], the C481 covalent modification entry in series [4] is “covalent modification and ✓”.
On BTK [2] (Table 18), `Nc1ncnc2c1c(-c1ccc(Oc3ccccc3)cc1)nn2CCNS(=O)(=O)c1c(F)c(F)c(F)c(F)c1F` [Compound 3A-9, N-[2-[4-amino-3-(4-phenoxyphenyl)pyrazolo[3,4-d]pyrimidin-1-yl]ethyl]-2,3,4,5,6-pentafluoro-benzenesulfonamide] returned an IC50 of 0.1 to 10 nM. The C481 covalent modification entry in [4] was “covalent modification and ✓”. Also, in series [4] (tryptic peptide 526-536), the C527 covalent modification result was “covalent modification and ✓”.
On JAK3, `C[C@H]1CC[C@@H](Nc2ncnc3[nH]ccc23)CN1S(=O)(=O)c1c(F)c(F)c(F)c(F)c1F` [Compound 3A-25, N-((3R,6S)-6-methyl-1-((perfluorophenyl)sulfonyl)piperidin-3-yl)-7H-pyrrolo[2,3-d]pyrimidin-4-amine] returned an IC50 of 1000 to 10000 nM.
With `O=S(=O)(NCCNc1ncnc2[nH]ccc12)c1c(F)c(F)c(F)c(F)c1F` [Compound 3A-27, N-(2-((7H-pyrrolo[2,3-d]pyrimidin-4-yl)amino)ethyl)-2,3,4,5,6-pentafluorobenzene sulfonamide], the figures for the IC50 at BTK [2] (Table 18) and against JAK3 were 0.1 to 10 nM and 1000 to 10000 nM, respectively.
The corresponding values for `CN(CCNc1ncnc2[nH]ccc12)S(=O)(=O)c1c(F)c(F)c(F)c(F)c1F` [Compound 3A-28, N-(2-((7H-pyrrolo[2,3-d]pyrimidin-4-yl)amino)ethyl)-2,3,4,5,6-pentafluoro-N-methylbenzenesulfonamide] are 100 to 1000 nM and 1000 to 10000 nM.
Consider `COCCOc1ccc(Nc2ncc(F)c(NCCNS(=O)(=O)c3c(F)c(F)c(F)c(F)c3F)n2)cc1` [Compound 3A-37, 2,3,4,5,6-pentafluoro-N-(2-((5-fluoro-2-((4-(2-methoxyethoxy)phenyl)amino)pyrimidin-4-yl)amino)ethyl)benzenesulfonamide], for which, in series [4], the C481 covalent modification result is “covalent modification and ✓”.
Regarding `COCCOc1ccc(Nc2ncc(F)c(Nc3ccc(NS(=O)(=O)c4c(F)c(F)c(F)c(F)c4F)cc3)n2)cc1` [Compound 3A-38, 2,3,4,5,6-pentafluoro-N-(4-((5-fluoro-2-((4-(2-methoxyethoxy)phenyl)amino)pyrimidin-4-yl)amino)phenyl)benzenesulfonamide], the C481 covalent modification result in series [4] was “covalent modification and ✓”.
`Nc1ncnc2c1c(-c1ccc(Oc3ccccc3)cc1)nn2[C@H]1CCCN(S(=O)(=O)c2c(F)c(F)c(F)c(F)c2F)C1` [I-A2, (S)-1-(1-((perfluorophenyl)sulfonyl)piperidin-3-yl)-3-(4-phenoxyphenyl)-1H-pyrazolo[3,4-d]pyrimidin-4-amine]: the 50% inhibitory concentration (IC50) lay in the range of 100 to 1000 nM against BTK [5], 1000 to 10000 nM in series [6] and 1000 to 10000 nM in series [7].
As to `Nc1ncnc2c1c(-c1ccc(Oc3ccccc3)cc1)nn2S(=O)(=O)c1c(F)c(F)c(F)c(F)c1F` [I-A3, 1-((perfluorophenyl)sulfonyl)-3-(4-phenoxyphenyl)-1H-pyrazolo[3,4-d]pyrimidin-4-amine], the IC50 against BTK [5] is 100 to 1000 nM; in series [6], 1000 to 10000 nM.
Consider `Nc1ncnc2c1c(-c1ccc(Oc3ccccc3)cc1)nn2[C@@H]1CCCN(S(=O)(=O)c2cc(F)c(F)c(F)c2F)C1` [I-A4, (R)-3-(4-phenoxyphenyl)-1-(1-((2,3,4,5-tetrafluorophenyl)sulfonyl)piperidin-3-yl)-1H-pyrazolo[3,4-d]pyrimidin-4-amine], for which the IC50 is 10 to 100 nM against BTK [5] and > 25000 nM in [7]. The “−Log Pe” value in series [8] is reported as “B (>5 to ≤6)”.
As to `Nc1ncnc2c1c(-c1ccc(Oc3ccccc3)cc1)nn2[C@@H]1CCCN(S(=O)(=O)c2c(OC3CC3)c(F)c(F)c(F)c2OC2CC2)C1` [I-A7, (R)-1-(1-((2,6-dicyclopropoxy-3,4,5-trifluorophenyl)sulfonyl)piperidin-3-yl)-3-(4-phenoxyphenyl)-1H-pyrazolo[3,4-d]pyrimidin-4-amine], the IC50 in series [7] was > 25000 nM. Also, the “−Log Pe” value in [8] is recorded as “C (>6 to ≤7)”.
